Entries after “also recorded” stand apart in the source; their conditions may differ. Where two headings read alike, the source gives them in different places.
What was measured:
HSV II = assay: Inhibition of cytopathic effects by HSV II in MA 104 cells (XTT); assay type: cell-based, HSV-2; conditions: for IC50: Human alphaherpesvirus 2, MA104
Method: Compounds were individually tested for activity against HSV-1 and/or HSV-2. HSV-2 (strain 414-92) was tested using MA 104 cells in the following assay protocol. 96-Well plates were seeded with 1×10^4 MA 104 cells per well using 200 μL minimal essential medium (MEM) containing 10% calf serum per well, and incubated overnight at 37° C. The compounds were dissolved in MEM Earle's Salts without serum. The medium was removed by aspiration and 100 μL MEM Earle's Salts without serum was added to the wells. Serial 3-fold dilutions of the compounds were prepared by serial transfer of 50 μL of medium from wells containing compound to wells lacking compound. The plates were incubated 15 minutes at 37° C. followed by addition of 100 PFU/well of virus in MEM Earle's Salts with 2% fetal bovine serum. The plates were then incubated at 37° C. for three days until approximately 90% of the cells in virus infected control wells containing no compound were killed. Following incubation, medium was aspirated and the wells were washed with sterile PBS. […] The results, shown in Table 6, were expressed as the IC50, the concentration (μM) that inhibits cell killing mediated by HSV-2 by 50%. […] The toxicity of the compounds were expressed as the CC50, the concentration that kills 50% of uninfected cells.

[1] = tested on: herpes simplex virus, type 1 or 2 (HSV-1 and -2); conditions: cited from earlier work
[2] = tested on: varicella zoster virus (VZV); conditions: cited from earlier work
adenovirus = conditions: cited from earlier work
vaccinia virus = conditions: cited from earlier work
[3] = tested on: thymidine kinase-deficient (TK^-) mutants of herpes simplex virus; conditions: TK^- HSV mutants; cited from earlier work
HCMV [4] = conditions: cited from earlier work
[5] = tested on: phocid herpesvirus type 1 (seal herpesvirus, SeHV); conditions: cited from earlier work
[6] = tested on: simian herpesvirus type 1 (SHV-1), or pseudorabies virus or Aujeszky's disease virus; conditions: SHV-1 / pseudorabies virus; cited from earlier work
[7] = tested on: bovid herpesvirus type 1 (infectious bovine rhinotracheitis virus, BHV-1); conditions: cited from earlier work
[8] = tested on: equid herpesvirus type 1 (equine abortion virus, EHV-1); conditions: cited from earlier work
[9] = tested on: African swine fever (ASF) virus; conditions: cited from earlier work
[10] = tested on: retroviruses such as murine sarcoma virus (MSV); conditions: cited from earlier work
[11] = tested on: herpes simplex virus type 1; conditions: mice and rabbits, local and systemic HSV-1 infections, including herpetic keratitis caused by acyclovir-type-drug-resistant TK^- mutant; cited from earlier work
HSV-2 (strain 414-92) = assay: Inhibition of HSV-2 mediated cell killing in MA 104 cells (crystal violet); assay type: cell-based; conditions: Human alphaherpesvirus 2, MA104, 72 h, read-out: HSV-2 IC50, concentration that inhibits cell killing mediated by HSV-2 by 50%
Method: Compounds were individually tested for activity against HSV-1 and/or HSV-2. HSV-2 (strain 414-92) was tested using MA 104 cells in the following assay protocol. 96-Well plates were seeded with 1×10^4 MA 104 cells per well using 200 μL minimal essential medium (MEM) containing 10% calf serum per well, and incubated overnight at 37° C. The compounds were dissolved in MEM Earle's Salts without serum. The medium was removed by aspiration and 100 μL MEM Earle's Salts without serum was added to the wells. Serial 3-fold dilutions of the compounds were prepared by serial transfer of 50 μL of medium from wells containing compound to wells lacking compound. The plates were incubated 15 minutes at 37° C. followed by addition of 100 PFU/well of virus in MEM Earle's Salts with 2% fetal bovine serum. The plates were then incubated at 37° C. for three days until approximately 90% of the cells in virus infected control wells containing no compound were killed. Following incubation, medium was aspirated and the wells were washed with sterile PBS. 100 μL 0.5% crystal violet in 20% methanol was then added to the wells for 5 minutes, aspirated and the wells were washed two or three times with distilled water. 200 μL of 0.01 N HCl was added to the wells and the absorbance of each well at 595 nm was determined. The results, shown in Table 6, were expressed as the IC50, the concentration (μM) that inhibits cell killing mediated by HSV-2 by 50%. […] The toxicity of the compounds were expressed as the CC50, the concentration that kills 50% of uninfected cells.

[12] = Toxicity to uninfected MA 104 cells; assay type: cell-based; conditions: monkey, read-out: CC50, concentration that kills 50% of uninfected cells
KOS strain of HSV-1 = assay: Activity against KOS strain of HSV-1 in VERO cells; assay type: cell-based; conditions: read-out: HSV-1 EC50, concentration that inhibits cell killing by 50%
Method: The compounds were also tested for activity against the KOS strain of HSV-1 in VERO cells. The results, shown in Table 7, were expressed as the EC50, the concentration (μM) that inhibits cell killing mediated by HSV-2 by 50%.

HCMV [13] = assay: Activity against HCMV in tissue culture (NHDF cell line); assay type: cell-based; conditions: Human betaherpesvirus 5
Excerpt: The title compound was synthesized using N^4 -benzoyl HPMPC diethyl ester tritylated at the hydroxyl group as a starting material. The starting material was detritylated using acetic acid and then converted to N^4 -benzoyl HPMPC using TMSBr. The resulting compound was converted to N^4 -benzoyl cHPMPC using DCC and morpholine in pyridine.

[14] = tested on: human cytomegalovirus (HCMV); conditions: in both humans and animals; cited from earlier work
in vitro = assay type: cell-based; conditions: monkey, ma 104 cells
Method: Compounds were individually tested for activity against HSV-1 and/or HSV-2. HSV-2 (strain 414-92) was tested using MA 104 cells in the following assay protocol. 96-Well plates were seeded with 1×10^4 MA 104 cells per well using 200 μL minimal essential medium (MEM) containing 10% calf serum per well, and incubated overnight at 37° C. The compounds were dissolved in MEM Earle's Salts without serum. The medium was removed by aspiration and 100 μL MEM Earle's Salts without serum was added to the wells. Serial 3-fold dilutions of the compounds were prepared by serial transfer of 50 μL of medium from wells containing compound to wells lacking compound. The plates were incubated 15 minutes at 37° C. followed by addition of 100 PFU/well of virus in MEM Earle's Salts with 2% fetal bovine serum. The plates were then incubated at 37° C. for three days until approximately 90% of the cells in virus infected control wells containing no compound were killed. Following incubation, medium was aspirated and the wells were washed with sterile PBS. 100 μL 0.5% crystal violet in 20% methanol was then added to the wells for 5 minutes, aspirated and the wells were washed two or three times with distilled water. 200 μL of 0.01 N HCl was added to the wells and the absorbance of each well at 595 nm was determined. […]

[15] = rhesus monkey, in vivo; cited from earlier work
in vivo = conditions: rhesus monkey, po
[16] = Conversion in rat intestinal homogenate; assay type: in vitro ADME
Excerpt: (§1) The cHPMPC pivaloyloxymethyl ester synthesis yields a racemic mixture at the phosphorus atom. The mixture was separated by HPLC into the two isomers which were then exposed to an rat intestinal homogenate or to a rat intestinal wash.

[17] = Conversion in rat intestinal wash; assay type: in vitro ADME; conditions: both phosphorus isomers
Excerpt: as §1

[18] = MA 104 cells, HSV-2 strain 414-92, three days
[19] = Human alphaherpesvirus 1, KOS strain of HSV-1, VERO cells

CCOC(=O)c1ccccc1OP(=O)(COCCn1cnc2c(N)ncnc21)Oc1ccccc1C(=O)OCC
activity (inhibition of cytopathic effects) (HSV II): active

Nc1ncnc2c1ncn2C[C@@H](CO)OCP(=O)(O)O [(S)-HPMPA]
antiviral activity [1]: active; also recorded: potent and selective activity | antiviral activity [2]: active; also recorded: potent and selective activity | antiviral activity (adenovirus): active; also recorded: potent and selective activity | antiviral activity (vaccinia virus): active; also recorded: potent and selective activity | antiviral activity [3]: potent and selective activity | antiviral activity (HCMV [4]): potent and selective activity | antiviral activity [5]: potent and selective activity | antiviral activity [6]: potent and selective activity | antiviral activity [7]: potent and selective activity | antiviral activity [8]: potent and selective activity | antiviral activity [9]: potent and selective activity | antiviral activity [10]: potent and selective activity | in vivo antiviral effect [11]: effective

Nc1nc(N)c2ncn(C[C@@H](CO)OCP(=O)(O)O)c2n1 [(S)-HPMPDAP]
antiviral activity [1]: active

Nc1nc2c(ncn2C[C@@H](CO)OCP(=O)(O)O)c(=O)[nH]1 [(S)-HPMPG]
antiviral activity [1]: active

Nc1ncnc2c1ncn2C[C@H]1COP(=O)(O)CO1 [(S)-cyclic HPMPA]
antiviral activity [1]: active | antiviral activity [2]: active | antiviral activity (adenovirus): active | antiviral activity (vaccinia virus): active

CC(NP(=O)(COCCn1cnc2c(N)ncnc21)NC(C)C(=O)OCc1ccccc1)C(=O)OCc1ccccc1 (centres unmarked) [Ex 1, bis(alanyl benzyl ester)PMEA]
IC50 (HSV-2 (strain 414-92); [18]): 20 µM | CC50 at 72 h [12]: > 100 µM

Nc1ncnc2c1ncn2CCOCP(=O)(NC(Cc1ccccc1)C(=O)OCc1ccccc1)NC(Cc1ccccc1)C(=O)OCc1ccccc1 (centres unmarked) [Ex 2]
IC50 (HSV-2 (strain 414-92); [18]): 4 µM | CC50 at 72 h [12]: 20 µM

Nc1ncnc2c1ncn2CCOCP(=O)(NCC(=O)OCc1ccccc1)NCC(=O)OCc1ccccc1 [Ex 4, bis(glycyl benzyl ester)PMEA]
IC50 (HSV-2 (strain 414-92); [18]): 60 µM | CC50 at 72 h [12]: > 100 µM

CCOC(=O)C(C)NP(=O)(COCCn1cnc2c(N)ncnc21)NC(C)C(=O)OCC (centres unmarked) [Ex 5]
IC50 (HSV-2 (strain 414-92); [18]): > 100 µM | CC50 at 72 h [12]: > 100 µM

CCOC(=O)C(CC(C)C)NP(=O)(COCCn1cnc2c(N)ncnc21)NC(CC(C)C)C(=O)OCC (centres unmarked) [Ex 6]
IC50 (HSV-2 (strain 414-92); [18]): 33 µM | CC50 at 72 h [12]: > 100 µM | EC50 (KOS strain of HSV-1; [19]): 20 µM

CCOC(=O)CNP(=O)(COCCn1cnc2c(N)ncnc21)NCC(=O)OCC [Ex 7]
IC50 (HSV-2 (strain 414-92); [18]): > 100 µM | CC50 at 72 h [12]: > 100 µM | EC50 (KOS strain of HSV-1; [19]): > 200 µM

CC(C)CC(NP(=O)(COCCn1cnc2c(N)ncnc21)NC(CC(C)C)C(=O)OC(C)(C)C)C(=O)OC(C)(C)C (centres unmarked) [Ex 9]
IC50 (HSV-2 (strain 414-92); [18]): 63 µM | CC50 at 72 h [12]: > 100 µM | EC50 (KOS strain of HSV-1; [19]): 63 µM

CC(NP(=O)(COCCn1cnc2c(N)ncnc21)NC(C)C(=O)OC(C)(C)C)C(=O)OC(C)(C)C (centres unmarked) [Ex 10]
IC50 (HSV-2 (strain 414-92); [18]): > 100 µM | CC50 at 72 h [12]: > 100 µM | EC50 (KOS strain of HSV-1; [19]): > 200 µM

CC(C)(C)OC(=O)CNP(=O)(COCCn1cnc2c(N)ncnc21)NCC(=O)OC(C)(C)C [Ex 11]
IC50 (HSV-2 (strain 414-92); [18]): > 100 µM | CC50 at 72 h [12]: > 100 µM | EC50 (KOS strain of HSV-1; [19]): > 200 µM

CCOC(=O)C(Cc1ccccc1)NP(=O)(COCCn1cnc2c(N)ncnc21)NC(Cc1ccccc1)C(=O)OCC (centres unmarked) [Ex 12]
IC50 (HSV-2 (strain 414-92); [18]): 20 µM | CC50 at 72 h [12]: 80 µM

Nc1ccn(C[C@@H](CO)OCP(=O)(O)O)c(=O)n1 [HPMPC]
IC50 (HCMV [13]): 0.4 µM | antiviral activity [1]: active | antiviral activity [14]: active

O=C(Nc1ccn(C[C@H]2COP(=O)(O)CO2)c(=O)n1)c1ccccc1 [N^4 -benzoyl cHPMPC]
IC50 (HCMV [13]): 22 µM

Nc1ncnc2c1ncn2CCOCP(=O)(O)O [PMEA, reference compound]
IC50 (HSV-2 (strain 414-92)): 21 µM | EC50 (KOS strain of HSV-1; Human alphaherpesvirus 1, Vero): 138 µM | IC50 (HSV II): 19.3 µM | CC50 (in vitro): 2000 µM | Oral bioavailability [15]: 2-4%

CCOc1ccccc1OP(=O)(COCCn1cnc2c(N)ncnc21)Oc1ccccc1OCC [bis(2-ethoxyphenyl)PMEA, Bis(2-ethoxyphenyl)PMEA]
activity (inhibition of cytopathic effects) (HSV II): active

CN(C)c1cccc(OP(=O)(COCCn2cnc3c(N)ncnc32)Oc2cccc(N(C)C)c2)c1 [bis(3-dimethylaminophenyl)PMEA]
activity (inhibition of cytopathic effects) (HSV II): active

COc1cccc(OP(=O)(COCCn2cnc3c(N)ncnc32)Oc2cccc(OC)c2)c1 [bis(3-methoxyphenyl)PMEA]
activity (inhibition of cytopathic effects) (HSV II): active

Nc1ncnc2c1ncn2CCOCP(=O)(Oc1ccc(F)cc1)Oc1ccc(F)cc1 [bis(4-fluorophenyl)PMEA]
activity (inhibition of cytopathic effects) (HSV II): active

CC(C)(C)C(=O)OCOP(=O)(COCCn1cnc2c(N)ncnc21)OCOC(=O)C(C)(C)C [bis(POM)PMEA, reference compound]
activity (inhibition of cytopathic effects) (HSV II): active | IC50 (HSV II): 0.5 µM | CC50 (in vitro): > 10 µM | bioavailability (in vivo): ~25%

Nc1ncnc2c1ncn2CCOCP(=O)(OCOC(=O)C12CC3CC(CC(C3)C1)C2)OCOC(=O)C12CC3CC(CC(C3)C1)C2 [bis(adamantoyl oxymethyl)PMEA, bis(adamantoyl oxymethyl)PMEA ester]
activity (inhibition of cytopathic effects) (HSV II): active

Nc1ncnc2c1ncn2CCOCP(=O)(Oc1ccccc1)Oc1ccccc1 [bis(phenyl)PMEA, Bis(phenyl)PMEA]
activity (inhibition of cytopathic effects) (HSV II): active

CC(C)(C)C(=O)OCOP1(=O)CO[C@@H](Cn2ccc(N)nc2=O)CO1 (some centres unmarked) [cHPMPC pivaloyloxymethyl ester]
metabolic conversion in homogenate ([16]; one of the two phosphorus isomers): converted to cHPMPC | metabolic conversion in homogenate ([16]; the other phosphorus isomer): converted to HPMPC pivaloyloxymethyl monoester | conversion in intestinal wash [17]: converted to HPMPC pivaloyloxymethyl monoester

Nc1ncnc2c1ncn2CCOCP(=O)(O)Oc1ccccc1 [monophenylPMEA, monophenyl ester of PMEA]
activity (inhibition of cytopathic effects) (HSV II): active

Source: patent US5717095A, “Nucleotide analogs” (Gilead Sciences, Inc., priority 1996, dated 1998)
